Patent publication US20250215029A1 (Recludix Pharma, Inc., priority 2022, published 2025)

Molecular target: T1, pY641-STAT6 in PBMC (Homo sapiens, UniProt P42226)
T1 construct: Cryopreserved Peripheral Blood Mononuclear Cells (PBMC) are from AllCells; host or cells: cryopreserved PBMC
T1 sequence (P42226 1-847): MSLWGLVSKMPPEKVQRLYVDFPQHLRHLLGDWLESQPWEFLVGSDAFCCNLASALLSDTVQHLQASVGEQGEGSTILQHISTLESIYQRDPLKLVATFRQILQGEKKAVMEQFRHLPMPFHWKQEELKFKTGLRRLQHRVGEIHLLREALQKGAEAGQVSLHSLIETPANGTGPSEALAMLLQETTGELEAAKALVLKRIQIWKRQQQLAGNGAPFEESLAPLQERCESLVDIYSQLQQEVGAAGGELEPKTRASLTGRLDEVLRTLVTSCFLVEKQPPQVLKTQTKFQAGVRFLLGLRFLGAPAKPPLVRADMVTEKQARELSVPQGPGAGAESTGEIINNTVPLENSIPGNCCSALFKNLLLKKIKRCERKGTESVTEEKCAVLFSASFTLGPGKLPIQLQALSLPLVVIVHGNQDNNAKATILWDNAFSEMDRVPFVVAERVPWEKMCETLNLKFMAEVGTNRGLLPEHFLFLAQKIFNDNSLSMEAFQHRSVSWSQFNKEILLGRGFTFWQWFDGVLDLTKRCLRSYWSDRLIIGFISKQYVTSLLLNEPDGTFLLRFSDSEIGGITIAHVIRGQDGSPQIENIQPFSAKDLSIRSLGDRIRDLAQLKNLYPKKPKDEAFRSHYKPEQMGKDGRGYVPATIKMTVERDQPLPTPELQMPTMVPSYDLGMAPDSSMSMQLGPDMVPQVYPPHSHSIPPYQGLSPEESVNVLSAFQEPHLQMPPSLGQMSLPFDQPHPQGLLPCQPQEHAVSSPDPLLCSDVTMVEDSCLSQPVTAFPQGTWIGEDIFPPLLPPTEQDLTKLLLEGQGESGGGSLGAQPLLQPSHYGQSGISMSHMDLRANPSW
Assay: MSD-pSTAT-PBMC Assay (pSTAT6, IL-4 stimulated)
Type: cell-based
Settings: PBMC, compound 3 hrs, then 1 ng/mL IL-4 for 10 min; Table 115; read-out: STAT6
Procedure, shortened: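 PBMC (human, cryopreserved, overnight recovery) + cpd 3 hrs → IL-6 10 ng/mL (STAT3) or IL-4 1 ng/mL (STAT6) ×10 min → lysis with protease/phosphatase inhibitors → MSD capture/phospho detection. IC50, variable slope, DMSO-normalized.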

SMILES	IC50 [nM]
CCCOC(=O)[C@H](C)NP(=O)(Cc1ccc2sc(C(=O)N[C@H]3CCCC[C@H]4CC[C@@H](C(=O)N5C[C@@H](C#N)[C@H](c6ccccc6)C5)N4C3=O)cc2c1)Oc1ccccc1 (stereo partly shown) [Compound 444]	100 to 1000
CCCOC(=O)[C@H](C)NP(=O)(Oc1ccccc1)[C@@H](F)c1ccc2sc(C(=O)N[C@H]3CCC[C@H]4CC[C@@H](C(=O)N5C[C@H](c6ccc(C)cc6)[C@@H](C#N)C56CC6)N4C3=O)cc2c1 (stereo partly shown) [Compound 479]	< 100

Same assay, conditions: STAT6, PBMC, compound 3 hrs, then 1 ng/mL IL-4 for 10 min; Table 115

SMILES	IC50 [nM]
C[C@H](NP(=O)(Oc1ccccc1)[C@@H](F)c1ccc2sc(C(=O)N[C@H]3CCCC[C@H]4CC[C@@H](C(=O)N5C[C@@H](c6cccnc6)CC56CC6)N4C3=O)cc2c1)C(=O)OC1CC1 (stereo partly drawn) [Compound 418, cyclopropyl (((R)-fluoro(2-(((3S,6S,10aS)-5-oxo-3-((R)-6-(pyridin-3-yl)-4-azaspiro[2.4]heptane-4-carbonyl)decahydropyrrolo[1,2-a]azocin-6-yl)carbamoyl)benzo [b]thiophen-5-yl)methyl)(phenoxy)phosphoryl)-L-alaninate]	< 100
CCCOC(=O)[C@H](C)NP(=O)(Oc1ccccc1)[C@@H](F)c1ccc2sc(C(=O)N[C@H]3CCCC[C@H]4CC[C@@H](C(=O)N5C(=O)N(c6ccc(C(F)F)nc6)C(=O)C56CC6)N4C3=O)cc2c1 (stereo partly drawn) [Compound 332, propyl (((R)-(2-(((3S,6S,10aS)-3-(6-(6-(difluoromethyl)pyridin-3-yl)-5,7-dioxo-4,6-diazaspiro[2.4]heptane-4-carbonyl)-5-oxodecahydropyrrolo [1,2-a]azocin-6-yl)carbamoyl)benzo [b]thiophen-5-yl)fluoromethyl) (phenoxy)phosphoryl)-L-alaninate]	> 3000
CCCOC(=O)[C@H](C)NP(=O)(Oc1ccccc1)[C@@H](F)c1ccc2sc(C(=O)N[C@H]3CC[C@@H](C)C[C@H]4CC[C@@H](C(=O)N5C[C@@H](c6cccnc6)CC56CC6)N4C3=O)cc2c1 (stereo partly drawn) [Compound 470, propyl (((R)-fluoro(2-(((3S,6S,9R,10aR)-9-methyl-5-oxo-3-((R)-6-(pyridin-3-yl)-4-azaspiro[2.4]heptane-4-carbonyl)decahydropyrrolo[1,2-a]azocin-6-yl)carbamoyl)benzo [b]thiophen-5-yl)methyl)(phenoxy)phosphoryl)-L-alaninate]	< 100
CCCOC(=O)[C@H](C)NP(=O)(Oc1ccccc1)[C@@H](F)c1ccc2sc(C(=O)N[C@H]3C[C@@H](C)C[C@H]4CC[C@@H](C(=O)N5C[C@@H](c6cccnc6)CC56CC6)N4C3=O)cc2c1 (stereo partly drawn) [Compound 353, propyl (((R)-fluoro(2-(((3S,6S,8R,9aR)-8-methyl-5-oxo-3-((R)-6-(pyridin-3-yl)-4-azaspiro[2.4]heptane-4-carbonyl)octahydro-1H-pyrrolo[1,2-a]azepin-6-yl)carbamoyl)benzo [b]thiophen-5-yl)methyl)(phenoxy)phosphoryl)-L-alaninate]	< 100
CCCOC(=O)[C@H](C)NP(=O)(Oc1ccccc1)[C@@H](F)c1ccc2sc(C(=O)N[C@H]3CCC[C@H]4CC[C@@H](C(=O)N5C(=O)N(c6cccnc6)C(=O)C56CC6)N4C3=O)cc2c1 (stereo partly drawn) [Compound 469, propyl (((R)-(2-(((3S,6S,9aS)-3-(5,7-dioxo-6-(pyridin-3-yl)-4,6-diazaspiro[2.4]heptane-4-carbonyl)-5-oxooctahydro-1H-pyrrolo[1,2-a]azepin-6-yl)carbamoyl)benzo [b]thiophen-5-yl)fluoromethyl) (phenoxy)phosphoryl)-L-alaninate]	100 to 1000
CC(C)OC(=O)[C@H](C)NP(=O)(Cc1ccc2sc(C(=O)N[C@H]3CCCC[C@H]4CC[C@@H](C(=O)N5C[C@@H](c6cccnc6)CC56CC6)N4C3=O)cc2c1)Oc1ccccc1 (stereo partly drawn) [Compound 475, isopropyl (((2-(((3S,6S,10aS)-5-oxo-3-((R)-6-(pyridin-3-yl)-4-azaspiro[2.4]heptane-4-carbonyl)decahydropyrrolo[1,2-a]azocin-6-yl)carbamoyl)benzo [b]thiophen-5-yl)methyl)(phenoxy)phosphoryl)-L-alaninate]	100 to 1000
COCCOC(=O)[C@H](COC)NP(=O)(Oc1ccccc1)[C@H](F)c1ccc2sc(C(=O)N[C@H]3CCC[C@H]4CC[C@@H](C(=O)N5C[C@H](c6ccccc6)[C@@H](C#N)C56CC6)N4C3=O)cc2c1 (stereo partly drawn) [Compound 348, 2-methoxyethyl N-(((S)-(2-(((3S,6S,9aS)-3-((6S,7R)-7-cyano-6-phenyl-4-azaspiro[2.4]heptane-4-carbonyl)-5-oxooctahydro-1H-pyrrolo[1,2-a]azepin-6-yl)carbamoyl)benzo [b]thiophen-5-yl)fluoromethyl) (phenoxy)phosphoryl)-O-methyl-L-serinate]	< 100
CC(C)OC(=O)[C@H](C)NP(=O)(Cc1ccc2ccc(C(=O)N[C@H]3CCCC[C@H]4CC[C@@H](C(=O)N5C[C@@H](c6cc[nH]c(=O)c6)CC56CC6)N4C3=O)cc2c1)Oc1ccccc1 (stereo partly drawn) [Compound 424, isopropyl (((7-(((3S,6S,10aS)-5-oxo-3-((R)-6-(2-oxo-1,2-dihydropyridin-4-yl)-4-azaspiro[2.4]heptane-4-carbonyl)decahydropyrrolo[1,2-a]azocin-6-yl)carbamoyl)naphthalen-2-yl)methyl)(phenoxy)phosphoryl)-L-alaninate]	100 to 1000
CCCOC(=O)[C@H](C)NP(=O)(Oc1ccccc1)C(F)c1ccc2sc(C(=O)N[C@H]3CCCC[C@H]4CCC[C@@H](C(=O)N5CC(C#N)[C@H](c6ccccc6)C5)N4C3=O)cc2c1 (relative stereo) [Compound 269, propyl (((2-(((4S,7S,11aS)-4-((rel-trans)-3-cyano-4-phenylpyrrolidine-1-carbonyl)-6-oxodecahydro-2H-pyrido[1,2-a]azocin-7-yl)carbamoyl)benzo [b]thiophen-5-yl)fluoromethyl) (phenoxy)phosphoryl)-L-alaninate]	< 100
C[C@H](NP(=O)(Cc1ccc2ccc(C(=O)N[C@H]3CCCC[C@H]4CC[C@@H](C(=O)N5CC(c6ccccc6)CC56CC6)N4C3=O)cc2c1)Oc1ccccc1)C(=O)OCC(C)(C)C (stereo partly drawn) [Compound 436, neopentyl (((7-(((3S,6S,10aS)-5-oxo-3-(6-phenyl-4-azaspiro[2.4]heptane-4-carbonyl)decahydropyrrolo[1,2-a]azocin-6-yl)carbamoyl)naphthalen-2-yl)methyl)(phenoxy)phosphoryl)-L-alaninate]	> 3000
CCCOC(=O)[C@H](C)NP(=O)(Oc1ccccc1)[C@@H](F)c1ccc2sc(C(=O)N[C@H]3CCCC[C@H]4CC[C@@H](C(=O)N5C[C@@H](c6cccc(C(F)F)c6)[C@H](C#N)C56CC6)N4C3=O)cc2c1 (single isomer, unassigned) [Compound 482]	< 100

Same assay, conditions: read-out: STAT6; PBMC, compound 3 hrs, then 1 ng/mL IL-4 for 10 min; Table 115

SMILES	IC50 [nM]
CCCOC(=O)[C@H](C)NP(=O)(Oc1ccccc1)[C@@H](F)c1ccc2sc(C(=O)N[C@H]3CCCC[C@H]4CC[C@@H](C(=O)N5C[C@H](c6cccc(C#N)c6)[C@@H](C#N)C56CC6)N4C3=O)cc2c1 (single isomer, unassigned) [Compound 340]	< 100
CCCOC(=O)[C@H](C)NP(=O)(Oc1ccccc1)C(F)c1ccc2sc(C(=O)N[C@H]3CCCC[C@H]4CC[C@@H](C(=O)N5C[C@@H](C#N)[C@H](c6ccccc6)C5)N4C3=O)cc2c1 (single isomer, unassigned) [Compound 317]	< 100
CCCOC(=O)[C@H](C)NP(=O)(Oc1ccccc1)[C@@H](F)c1ccc2sc(C(=O)N[C@H]3CCCC[C@H]4CC[C@@H](C(=O)N5C[C@H](c6cccc(OC)c6)[C@@H](C#N)C56CC6)N4C3=O)cc2c1 (single isomer, unassigned) [Compound 336]	< 100
